Measured values: paper PMC10702058, “Phase I dose escalation study and pilot efficacy analysis of LXI-15029, a novel mTOR dual inhibitor, in Chinese subjects with advanced malignant solid tumors” (BMC Cancer, 2023)
“Also recorded” adds a separate entry of the source.

Experiment: Plasma pharmacokinetics of LXI-15029 (LC-MS/MS, non-compartmental analysis)
Format: in vivo, human
Conditions: for AUC / Cmax at 28 day / AUC(0-inf) / Cmax: human, plasma, geometric mean (coefficient of variation); for AUC / Cmax at 28 day / RacAUC (accumulation ratio) / RacCmax (accumulation ratio) / t1/2ss: multiple dose, cycle 1 day 28; for AUC(0-inf) / Cmax / CL/F / V/F: single dose, cycle 1 day 1; for RacAUC (accumulation ratio) / RacCmax (accumulation ratio) / t1/2ss / CL/F / V/F: arithmetic mean ± standard deviation
Description: Blood samples for PK analysis of LXI-15029 were collected on day 1 (pre-dose, 20 min, 40 min, 1 h, 1.5 h, 2 h, 3 h, 4 h, 6 h, 8 h, 12 h, 24 h, and 48 h), cycle 1 day 8 (pre-dose), cycle 1 day 15 (pre-dose), and cycle 1 day 28 (pre-dose, 20 min, 40 min, 1 h, 1.5 h, 2 h, 3 h, 4 h, 6 h, 8 h, and 12 h). The blood samples were stored at -70°C until testing. The concentration of LXI-15029 in plasma was measured using the validated liquid chromatography-tandem mass spectrometry (LC–MS/MS) method. The concentration–time information of LXI-15029 was summarized based on pre-dose and post-dose data of each patient, to explore the linearity of exposure with single dose and steady-state situations, the time to reach steady state and the predictability of single to multiple doses PK. PK parameters were calculated separately for single and repeated doses using descriptive statistics. PK analysis was performed by Covance Central Laboratory using the validated software Phoenix WinNonlin Version 8.1 (Pharsight, Mountain View, CA). A standard non-compartmental method was used to calculate the peak plasma concentration (Cmax), time to reach the Cmax (tmax), the total area under the concentration–time curve (AUC0-∞), and the elimination half-life (t1/2).

CNC(=O)c1cccc(-c2ccc3c(N4C5CCC4COC5)nc(N4CCOC[C@@H]4C)nc3n2)c1 [LXI-15029]
AUC (oral, 80 mg BID (n = 4)): 5220 ng·h/mL | Cmax at 28 day (oral, 80 mg BID (n = 4)): 2260 ng/mL | AUC (oral, 110 mg BID (n = 3)): 12900 ng·h/mL | Cmax at 28 day (oral, 110 mg BID (n = 3)): 3930 ng/mL | AUC (oral, 150 mg BID (n = 4)): 25500 ng·h/mL | Cmax at 28 day (oral, 150 mg BID (n = 4)): 5840 ng/mL | AUC(0-inf) (oral, 10 mg BID (n = 3)): 111 ng·h/mL | Cmax (oral, 10 mg BID (n = 3)): 66.5 ng/mL | AUC(0-inf) (oral, 20 mg BID (n = 3)): 898 ng·h/mL | Cmax (oral, 20 mg BID (n = 3)): 474 ng/mL | AUC(0-inf) (oral, 40 mg BID (n = 3)): 1680 ng·h/mL | Cmax (oral, 40 mg BID (n = 3)): 1010 ng/mL | AUC(0-inf) (oral, 60 mg BID (n = 4)): 3750 ng·h/mL | Cmax (oral, 60 mg BID (n = 4)): 1340 ng/mL | AUC(0-inf) (oral, 80 mg BID (n = 4)): 1870 ng·h/mL | Cmax (oral, 80 mg BID (n = 4)): 1340 ng/mL | AUC(0-inf) (oral, 110 mg BID (n = 3)): 5340 ng·h/mL | Cmax (oral, 110 mg BID (n = 3)): 2930 ng/mL | AUC(0-inf) (oral, 150 mg BID (n = 4)): 12100 ng·h/mL | Cmax (oral, 150 mg BID (n = 4)): 4140 ng/mL | RacAUC (accumulation ratio) (10 mg BID (n = 3)): 2.08 ± 1.289 | RacCmax (accumulation ratio) (10 mg BID (n = 3)): 1.96 ± 1.061 | t1/2ss (10 mg BID (n = 3)): 1.13 ± 0.080 h | RacAUC (accumulation ratio) (20 mg BID (n = 3)): 0.99 ± 0.260 | RacCmax (accumulation ratio) (20 mg BID (n = 3)): 0.75 ± 0.140 | t1/2ss (20 mg BID (n = 3)): 1.24 ± 0.167 h | RacAUC (accumulation ratio) (40 mg BID (n = 3)): 1.00 ± 0.036 | RacCmax (accumulation ratio) (40 mg BID (n = 3)): 1.02 ± 0.180 | t1/2ss (40 mg BID (n = 3)): 1.14 ± 0.250 h | RacAUC (accumulation ratio) (60 mg BID (n = 4)): 1.47 ± 0.546 | RacCmax (accumulation ratio) (60 mg BID (n = 4)): 1.37 ± 0.382 | t1/2ss (60 mg BID (n = 4)): 1.90 ± 0.197 h | RacAUC (accumulation ratio) (80 mg BID (n = 4)): 1.78 ± 0.268 | RacCmax (accumulation ratio) (80 mg BID (n = 4)): 1.28 ± 0.102 | t1/2ss (80 mg BID (n = 4)): 1.33 ± 0.068 h | RacAUC (accumulation ratio) (110 mg BID (n = 3)): 2.51 ± 0.778 | RacCmax (accumulation ratio) (110 mg BID (n = 3)): 1.37 ± 0.352 | t1/2ss (110 mg BID (n = 3)): 2.33 ± 0.857 h | RacAUC (accumulation ratio) (150 mg BID (n = 4)): 2.39 ± 0.768 | RacCmax (accumulation ratio) (150 mg BID (n = 4)): 1.36 ± 0.507 | t1/2ss (150 mg BID (n = 4)): 3.26 ± 1.247 h | absorption after oral administration (oral): absorbed rapidly; also recorded: fast absorbed | CL/F (10 mg BID (n = 3)): 99.45 ± 51.035 L/h | V/F (10 mg BID (n = 3)): 126.07 ± 40.383 L | CL/F (20 mg BID (n = 3)): 24.11 ± 11.940 L/h | V/F (20 mg BID (n = 3)): 49.56 ± 19.453 L | CL/F (40 mg BID (n = 3)): 24.58 ± 7.772 L/h | V/F (40 mg BID (n = 3)): 42.35 ± 25.602 L | CL/F (60 mg BID (n = 4)): 16.47 ± 4.677 L/h | V/F (60 mg BID (n = 4)): 45.88 ± 14.063 L | CL/F (80 mg BID (n = 4)): 48.30 ± 25.396 L/h | V/F (80 mg BID (n = 4)): 92.88 ± 47.995 L | CL/F (110 mg BID (n = 3)): 24.35 ± 17.791 L/h | V/F (110 mg BID (n = 3)): 43.99 ± 17.319 L | CL/F (150 mg BID (n = 4)): 12.57 ± 2.022 L/h | V/F (150 mg BID (n = 4)): 34.75 ± 12.576 L
